{"source": "paper PMC5509998", "about": "“Autotaxin–lysophosphatidic acid–LPA 3 signaling at the embryo‐epithelial boundary controls decidualization pathways” (The EMBO Journal, 2017)", "biological_target": "T1, autotaxin (ATX, ENPP2) (Mus musculus, UniProt Q9R1E6)", "T1 construct": "recombinant ATX; mouse ENPP proteins expressed in HEK293A cells (culture supernatants)", "assay": "colorimetric phosphodiesterase assay with p-nitrophenyl TMP as substrate", "assay_type": "biochemical", "data": [{"smiles": "CCCCCn1c(-c2ccc(C(=O)NCCN3CCOCC3)cc2)cc(=O)n2cc(-c3ccc(Cl)cc3)nc12", "note": "[S15-00826]", "values": [{"measurement": "IC50", "result": "~38", "unit": "nM"}]}]}
